According to patent publication US20020183333A1, “Compositions and methods for chemotherapy having reduced nephrotoxicity” (priority 2000, published 2002):
“Also recorded” adds a separate entry of the source.

Key:
[1] = test system: cardiotoxicity induced by doxorubicin; details: women with breast cancer; cited from earlier work
[2] = test system: LLC-WRC 256 cells; experiment: Antineoplastic efficacy of CP by trypan blue exclusion assay (percentage of non-viable cells); type: cell-based, rat; details: for effect of the inhibitor on the antineoplastic efficacy of cisplatin: 30 min preincubation with DFO 1 mM, DMSO 5 mM, CM 2 mM or PB 1 mM, then cisplatin 500 μg/ml for 5 hours, FIGS. 2 and 3
Protocol: LLC-WRC 256 cells (Walker rat carcinoma cells) purchased from American Type Culture Collection (ATCC, Rockville, Maryland) were maintained in 75 cm^2 tissue culture flasks containing Medium 199 supplemented with 5% fetal bovine serum (Gibco, Gaithersburg, Md.) in a humidified atmosphere of 95% air-5% CO2 at 37° C. For the experimental study, the cell monolayers were subcultured with 0.25% trypsin into a 12-well tissue culture plate until confluence. The antineoplastic efficacy of CP in LLC-WRC 256 cells was measured by the cell viability determined by the trypan blue exclusion assay. Cells failing to exclude the dye were considered non-viable, and data expressed as the percentage of non-viable cells. Antineoplastic efficacy of CP was examined as previously described (Rawlings and Roberts, 1986, Mutation Research 166(2): 157-168.). The cells were incubated with various concentrations of CP (0-600 μg/ml) at different time points (0-6 h) in HBSS at 37° C. At the end of the incubation, the cell viability was determined. Confluent LLC-WRC 256 cell monolayer was incubated with antineoplastic dose of CP for a period of time necessary to induce consistent antineoplastic activity (CP 500 μg/ml in HBSS for 5 hours at 37° C., based on the. initial observation). The cell monolayers were preincubated with iron chelator, deferoxamine (1 mM) or hydroxyl radical scavenger, dimethyl sulfoxide (5 mM) at 37° C. for 30 minutes, washed twice with HBSS and then followed by the addition of CP. LLC-WRC 256 cell monolayers were preincubated with cimetidine (2 mM) or piperonyl butoxide (1 mM) at 37° C. for 30 min, washed with HBSS twice and then followed by the addition of CP (500 μg/ml for 5 hours at 37° C.)

[3] = test system: LLC-WRC 256 cells; experiment: Catalytic iron release into the medium, bleomycin assay; type: cell-based, rat; details: CP 500 μg/ml for 2.5 hours, n=6; control 2.44±0.59
Protocol: Confluent […] 256 cells were washed twice with Chelex-treated HBSS and then incubated with a cytotoxic, dose of CP in Chelex-treated HBSS for a period of time before substantial cell killing occurred (500 μg/ml for 2.5 hours at 37° C., based on the time course study). The catalytic iron released into the medium was measured by the bleomycin assay, as described below. Iron capable of catalyzing free radical reactions (catalytic iron) was measured by the bleomycin assay as utilized in our previous studies (Baliga et al. , 1998, Kidney Int. 53:394-401, and Baliga et al., 1998, Kidney Int. 54:1562-1569). All reagents except for the experimental samples were made up in Chelex-treated pyrogen-free water and shaken with Chelex 100 to remove as much contaminating iron as possible. The reaction mixture contained in order: 0.5 ml of calf thymus DNA (1 mg/ml), 0.05 ml of bleomycin sulfate (1 mg/ml), 0.1 ml MgCl2 (50 mM), 0.1 ml of sample, 0.1 ml of ascorbic acid (8 mM), and either HCl (50 mM) or NaOH (50 mM) to adjust pH in the range of 7.2-7.8. […] The reaction mixture was then heated at 100° C. for 15 minutes, cooled and the resulting chromogen measured using spectrophotometer at A 532 nm. The amount of bleomycin detectable iron in the test sample was calculated from the standard curve and the results expressed as nmol/mg cellular protein recovered from the cell monolayer.

[4] = test system: LLC-WRC 256 cells; experiment: Hydroxyl radical formation, deoxyribose degradation method; type: cell-based, rat; details: CP 500 μg/ml for 2.5 hours, n=4; control 0.45±0.03
Protocol: Confluent cell monolayers were washed with HBSS and then incubated with cytotoxic dose of CP in HBSS at 37° C. for a period of time before substantial cell killing occurred (500 μg/ml for 2.5 hours). 2-deoxy-D-ribose at a final concentration of 3 mM was added to the medium just prior to the incubation. At the end of the incubation, the medium was collected for the measurement of hydroxyl radical formation by deoxyribose degradation method as described by Halliwell et al., 1988, Meth. Biochem. Anal 33:59-90. In brief, 0.5 ml of the incubation medium was mixed with 0.5 ml of 1% (w/v). 5 thiobarbituric acid in 50 mM NaOH and 0.5 ml of 2.8% (w/v) aqueous trichloroacetic acid, heated at 100° C. for 15 min, cooled and followed by extraction with 1.5ml n-butanol. The absorbance at 532 nm of the resulting supernatant was then taken, and the hydroxyl radical level was calculated by using the extinction coefficient of 156 mM^−1 cm^−1.

SMILES: C[C@@H](CN1CC(=O)NC(=O)C1)N1CC(=O)NC(=O)C1 [dexrazoxane]
- effect on frequency and severity of doxorubicin-induced cardiotoxicity [1]: decrease the frequency and severity of cardiotoxicity

SMILES: C[S+](C)[O-] [DMSO, dimethyl sulfoxide]
- effect of the inhibitor on the antineoplastic efficacy of cisplatin [2]: CP still functions as an antineoplastic compound; also recorded: does not reduce the antineoplastic efficacy of CP

SMILES: CN/C(=N/CCSCc1nc[nH]c1C)NC#N [CM, cimetidine]
- effect of the inhibitor on the antineoplastic efficacy of cisplatin [2]: does not reduce the antineoplastic efficacy of CP; also recorded: do not effect the antineoplastic activity of CP

SMILES: N.N.[Cl][Pt][Cl] [CP, cisplatin]
- time of exposure that results in significant cell death ([2]; CP 500 μg/ml, time course 0-6 hours, FIG. 1B): 5 h
- low dose at which significant cell death occurs ([2]; LLC-WRC 256 cells, 4 hour incubation, CP 0-600 μg/ml, FIG. 1A): 50 µg/mL
- CP dose required to produce submaximal injury ([2]; LLC-WRC 256 cells, concentration dependent effects, FIG. 1A): 500 µg/mL
- catalytic iron release [3]: 2.78±0.41 nmol/mg protein
- generation of hydroxyl radical [4]: 0.41±0.03 nmol/mg protein
